Among the data in ChEMBL document CHEMBL1137633, “2,N6-disubstituted adenosine analogs with antitrypanosomal and antimalarial activities” (Antimicrob Agents Chemother, 2007) are IC50 values, retold here.

The structures appear in SMILES notation. A value given as a limit tells only on which side of the number the result lay.

What all share (type): functional, organism-based
The subject of one experiment is Plasmodium falciparum. As to the kind of experiment: Antiplasmodial activity against chloroquine and pyrimethamine-resistant Plasmodium falciparum K1 […] by reporter dye assay.
Another experiment relates to Trypanosoma cruzi. The experiment in a line: Trypanocidal activity against Trypanosoma cruzi Tulahuen C4 trypomastigotes infected in mouse macrophage by reporter dye assay.
A further experiment relates to Leishmania donovani. The experiment in a line: Antileishmanial activity against Leishmania donovani MHOMET-67/L82 amastigotes infected in mouse macrophage by reporter dye assay.
Experiment [1] relates to Trypanosoma brucei rhodesiense. As to the kind of experiment: Trypanocidal activity against Trypanosoma brucei rhodesiense STIB 900 […] by reporter dye assay.

Regarding `OC[C@H]1O[C@@H](n2cnc3c(NCCC(c4ccccc4)c4ccccc4)nc(NC4CCCC4)nc32)[C@H](O)[C@@H]1O`, the IC50 is 3.28 µM in the experiment with Plasmodium falciparum, < 30 µM with Trypanosoma cruzi, < 30 µM in the experiment on Leishmania donovani and 8 µM in experiment [1].
`OC[C@H]1O[C@@H](n2cnc3c(NCCC(c4ccccc4)c4ccccc4)nc(NCc4cccc5ccccc45)nc32)[C@H](O)[C@@H]1O`: the IC50 amounted to 1.56 µM in the experiment with Plasmodium falciparum and 17.3 µM in experiment [1].
As for `COc1nc(NCc2cccc(I)c2)c2ncn([C@@H]3O[C@H](CO)[C@@H](O)[C@H]3O)c2n1`, the IC50 with Plasmodium falciparum was > 10 µM; in the experiment with Trypanosoma cruzi, < 30 µM; in the experiment on Leishmania donovani, < 30 µM; in experiment [1], 26.7 µM.
Regarding `OC[C@H]1O[C@@H](n2cnc3c(NCCC4CNc5ccccc54)nc(NCCC4CNc5ccccc54)nc32)[C@H](O)[C@@H]1O` (some centres not stated), the results for the IC50 (in the experiment with Plasmodium falciparum; in experiment [1]) were 2.46 µM and 26.5 µM, respectively.
Take `OC[C@H]1O[C@@H](n2cnc3c(NCCC(c4ccccc4)c4ccccc4)nc(NCCc4cnc[nH]4)nc32)[C@H](O)[C@@H]1O`: the IC50 is 8.17 µM with Plasmodium falciparum, < 30 µM with Trypanosoma cruzi, < 30 µM in the experiment with Leishmania donovani and 71.5 µM in experiment [1].
`OC[C@H]1O[C@@H](n2cnc3c(Nc4ccccc4)nc(NCCc4cnc[nH]4)nc32)[C@H](O)[C@@H]1O`: the IC50 with Plasmodium falciparum is > 10 µM; with Trypanosoma cruzi, < 30 µM; in the experiment with Leishmania donovani, < 30 µM; in experiment [1], 76.3 µM.
On to `CCN(CC)CCCC(C)Nc1ccnc2cc(Cl)ccc12` (configuration not stated) [CHLOROQUINE], for which the IC50 with Trypanosoma cruzi and in the experiment with Leishmania donovani was < 30 µM in each case.
As to `OC[C@H]1O[C@@H](n2cnc3c(NCc4cccc(I)c4)nc(NCCOCc4ccccc4)nc32)[C@H](O)[C@@H]1O`, the IC50 in the experiment on Plasmodium falciparum was > 10 µM; in the experiment on Trypanosoma cruzi, < 30 µM; in the experiment with Leishmania donovani it was < 30 µM; in experiment [1], 27 µM.
In turn, `C[C@@H]1CC[C@H]2[C@@H](C)C(=O)O[C@@H]3O[C@@]4(C)CC[C@@H]1[C@]32OO4` [ARTEMISININ] yielded a half-maximal inhibitory concentration (IC50) with Plasmodium falciparum of 0.2 µM.
In the case of `OC[C@H]1O[C@@H](n2cnc3c(N4CCCCC4)nc(N4CCCCC4)nc32)[C@H](O)[C@@H]1O`, the figures for the 50% inhibitory concentration (IC50) (with Plasmodium falciparum; in experiment [1]) were > 10 µM and 87.2 µM, respectively.
As to `OC[C@H]1O[C@@H](n2cnc3c(NC45CC6CC(CC(C6)C4)C5)nc(N4CCCC4)nc32)[C@H](O)[C@@H]1O`, the IC50 with Plasmodium falciparum amounted to 6.2 µM; in experiment [1] it was 34.1 µM.
In the case of `COc1nc(NCCC(c2ccccc2)c2ccccc2)c2ncn([C@@H]3O[C@H](CO)[C@@H](O)[C@H]3O)c2n1`, the IC50 is > 10 µM with Plasmodium falciparum, < 30 µM with Trypanosoma cruzi, < 30 µM in the experiment on Leishmania donovani and 36 µM in experiment [1].
Turning to `OC[C@H]1O[C@@H](n2cnc3c(NCc4cccc(I)c4)nc(NCCc4cnc[nH]4)nc32)[C@H](O)[C@@H]1O`, the IC50 is > 10 µM in the experiment with Plasmodium falciparum, < 30 µM in the experiment with Trypanosoma cruzi, < 30 µM in the experiment with Leishmania donovani and 42.9 µM in experiment [1].
`OC[C@H]1O[C@@H](n2cnc3c(N4CCCCC4)nc(NC4CCCC4)nc32)[C@H](O)[C@@H]1O`: the IC50 in the experiment with Plasmodium falciparum is > 10 µM; in experiment [1], 11.2 µM.
The matching figures for `OC[C@H]1O[C@@H](n2cnc3c(NC4CC4)nc(NC4CC4)nc32)[C@H](O)[C@@H]1O`: > 10 µM and 172 µM.
For the compound `OC[C@H]1O[C@@H](n2cnc3c(NCc4cccc5ccccc45)nc(NCCC(c4ccccc4)c4ccccc4)nc32)[C@H](O)[C@@H]1O`, the IC50 with Plasmodium falciparum came out at 1.76 µM; in experiment [1], 24.1 µM.
`OC[C@H]1O[C@@H](n2cnc3c(NC4CCCCCC4)nc(NC4CCCCCC4)nc32)[C@H](O)[C@@H]1O`: the IC50 in the experiment with Plasmodium falciparum was found to be 4.91 µM; in experiment [1], 29.8 µM.
Take `OC[C@H]1O[C@@H](n2cnc3c(NC4CCCCC4)nc(NC4CCCCC4)nc32)[C@H](O)[C@@H]1O`: the values for the IC50 (with Plasmodium falciparum; in experiment [1]) were 9.62 µM and 7.26 µM, respectively.
With `Nc1nc(N)nc(Nc2ccc([As]3SCC(CO)S3)cc2)n1` (configuration not stated) [MELARSOPROL], the values for the 50% inhibitory concentration (IC50) (in the experiment with Trypanosoma cruzi; in the experiment on Leishmania donovani; in experiment [1]) were < 30 µM, < 30 µM and 0.0056 µM, respectively.

As a reminder, the IC50 is the concentration needed to halve the response being measured.
